# Experiments:
# [1] = tested on: PRMT5 (histone H4 Arg3 SDMA levels in MDA-MB-468 cells); assay: In vitro assay 2: quantification of SDMA (symmetric dimethylarginine) expression levels (H4 Arg3) in cancer cells, High-Content Analysis; assay type: cell-based; details: Homo sapiens, 72 h, SDMA histone H4 (Arg3) average signal intensity per cell
# Description: In Vitro Assay 2: Quantification of SDMA (Symmetric Dimethylarginine) Expression Levels (H4 Arg3) After Small Molecule Treatment of Cancer Cells
# The SDMA-assay based on High-Content Analysis (HCA) enables the biological characterization of compounds inhibiting PRMT5. By this assay, substances are benchmarked on their cellular activity to modulate histone H4 Arg3 levels over broad inhibitor concentration ranges.
# Cultivated cells of the human mammary gland tumor cell line MDA-MB-468 (ATCC HTB-132) were plated at a density of 2500 cells per well in a 384-well microtiter plate in 20 μL of Roswell Park Memorial Institute (RPMI) 1640 medium supplemented with 1% (v/v) glutamine, 1% (v/v) penicillin, 1% (v/v) streptomycin and 10% (v/v) fetal calf serum. After pre-incubation at 37° C. overnight, test compo unds solubilized in DMSO were added at various concentrations (0 μM, as well as in the range of 0.005 μM-30 μM; the final concentration of the solvent DMSO was 0.5% (v/v)). Cells were incubated at 37° C. for 72 h in the presence of test compounds. Thereafter, cells were fixed with 4% (v/v) paraformaldehyde in phosphate buffered saline (PBS) at room temperature for 1 h, permeabilized using 0.5% (v/v) Triton X™ 100 in PBS for 15 min and blocked with 1% (v/v) bovine serum albumin (BSA) in PBS for 30 min. In the following, cells were incubated with anti-dimethyl-histone H4 (Arg3) symmetric antibody (Millipore #07-947) at RT for 2 h. After a single washing step with blocking solution, cells were incubated with species-specific fluorescent conjugated secondary antibody Alexa Fluor™ 488 (Jackson Immuno Research #111-546-003) at RT for 2 h.
# Image acquisition for cells was carried out using the confocal imaging system OPERA® (PerkinElmer). Images were captured using two channels: Hoechst 33342 stain (DNA) and Alexa Fluor™ 488 (SDMA staining); and were analyzed using the MetaXpress® software (Molecular Devices). Exposure times were chosen for individual experiments to prevent saturation and allow for quantification in the linear range. A minimum of 500 cells in 5 field views were analyzed per well using 10× water immersion objective with a two-fold binning.
# The image analysis routine was developed in MetaXpress®. The standardized image-analysis module “Count Nuclei” and the images of the DNA-channel were used for nuclei segmentation. The segmented nuclei were filtered for size, shape and signal intensity to exclude possible apoptotic and non-viable cells along with metaphase nuclei. These phenotypes result in overestimated antibody signals, due to their strong chromatin compaction. For further processing, binary object masks were calculated from the segmented and positively selected nuclei. The binary masks served as templates to be superimposed over the images of the SDMA channel. The SDMA average signal intensity per cell was quantified for every image set. The assay raw data were further analyzed by four parameter logistic regression analysis using Genedata's Assay Analyzer® and Condoseo® software to determine the IC50 value for each tested compound.
# [2] = target: T1, PRMT5:MEP50 protein complex (Homo sapiens, UniProt O14744); assay: In vitro assay 1: PRMT5 SPA assay ("EAA"); assay type: biochemical; details: scintillation proximity assay, methylation of biotinylated H4(1-24) peptide, 3H-SAM, 60 min at 22° C.
# T1 construct: FLAG (N); made in house; host or cells: Hi5 insect cells
# Description: In Vitro Assay 1: PRMT5 SPA Assay (“EAA”)
# PRMT5 inhibitory activities of the compounds described in the present invention were quantified using a scintillation proximity assay (SPA) which measures methylation by the enzyme of a synthetic, biotinylated peptide corresponding to the N-terminal sequence of Histone H4 (a.a. 1-24). The peptide of sequence […]-K(Btn)-amide is commercially available (e.g. from Biosyntan) and will be herein referred to as H4(1-24). The PRMT5:MEP50 protein complex used in the assay was produced in house following standard protocols. Briefly, full length PRMT5 and MEP50 constructs respectively tagged with N-terminal FLAG and 6× His sequences were co-expressed in Hi5 insect cells, and the recombinant protein complex was purified by FLAG affinity and size exclusion chromatography.
# In a typical assay 11 different concentrations of each compound (0.1 nM, 0.33 nM, 1.1 nM, 3.8 nM, 13 nM, 44 nM, 0.15 μM, 0.51 μM, 1.7 μM, 5.9 μM and 20 μM) were tested in duplicate within the same microtiter plate. To this end, 100-fold concentrated compound solutions (in DMSO) were previously prepared by serial dilution (1:3.4) of 2 mM stocks in a clear low volume 384-well source microtiter plate (Greiner Bio-One), from which 50 nl of compounds were transferred into a white low volume test microtiter plate from the same supplier. Subsequently, 2.5 μL PRMT5 in aqueous assay buffer [20 mM Bicine pH 8.0 (Alfa Aesar), 7.5 mM Tris(2-carboxyethyl) phosphine hydrochloride (TCEP, Sigma), 0.1% (w/v) bovine gamma globuline (BGG, Sigma), 0.002% (v/v) Tween-20 (Sigma)] were added to the compounds in the test plate to a final enzyme concentration of—typically—7.5 nM (this parameter was adjusted depending on the activity of the enzyme lot in order to be within the linear dynamic range of the assay). The samples were then incubated for 15 min at 22° C. to allow pre-equilibration of the putative enzyme-inhibitor complexes before the start of the methylation reaction, which was initiated by the addition of 2.5 μL 2-fold concentrated solution (in assay buffer) of “cold” S-Adenosyl-L-Methionine (SAM, Sigma, final concentration: 0.5 μM), tritiated 3H-SAM (Perkin Elmer, final concentration: 0.5 μM) and H4(1-24) peptide substrate (final concentration: 0.06 μM). The resulting mixture (5 μL final volume) was shortly centrifuged (2 min., 1500 rpm) and incubated at 22° C. during 60 min. Thereupon the reaction was stopped by adding 3 μL of Streptavidin PS SPA imaging beads (Perkin Elmer, final concentration of 0.375 μg/μL) and “cold” SAM (AK Scientific, 250 μM final concentration) for non-specific binding reduction. Plates containing the stopped reaction were sealed with transparent adhesive foil (Perkin Elmer), centrifuged (2 min., 1500 rpm), and further incubated either 1 h at 22° C. or overnight at 4° C. in order to allow the SPA signals to develop. Subsequently, the amount of product was evaluated by measuring the energy transfer from the β-particles emitted by the 3H-labeled substrate to the Europium scintillator co-polymerized in the polystyrene matrix of the PS imaging beads, using the standard settings for this purpose of a Viewlux (Perkin-Elmer) CCD plate imaging device (emission filter 613/55 (IFP).
# The resulting scintillation counts were taken as indicator for the amount of methylated peptide per well. The data were normalised using two sets of control wells (typically 16 each) for high—(=enzyme reaction with DMSO instead of test compound=0%=minimum inhibition) and low—(=all assay components without enzyme=100%=maximum inhibition) PRMT5 activity. IC50 values were calculated by fitting the normalized inhibition data to a 4-parameter logistic equation using the “Screener” analysis software from Genedata.
# T1 sequence (O14744 whole entry, species assumed): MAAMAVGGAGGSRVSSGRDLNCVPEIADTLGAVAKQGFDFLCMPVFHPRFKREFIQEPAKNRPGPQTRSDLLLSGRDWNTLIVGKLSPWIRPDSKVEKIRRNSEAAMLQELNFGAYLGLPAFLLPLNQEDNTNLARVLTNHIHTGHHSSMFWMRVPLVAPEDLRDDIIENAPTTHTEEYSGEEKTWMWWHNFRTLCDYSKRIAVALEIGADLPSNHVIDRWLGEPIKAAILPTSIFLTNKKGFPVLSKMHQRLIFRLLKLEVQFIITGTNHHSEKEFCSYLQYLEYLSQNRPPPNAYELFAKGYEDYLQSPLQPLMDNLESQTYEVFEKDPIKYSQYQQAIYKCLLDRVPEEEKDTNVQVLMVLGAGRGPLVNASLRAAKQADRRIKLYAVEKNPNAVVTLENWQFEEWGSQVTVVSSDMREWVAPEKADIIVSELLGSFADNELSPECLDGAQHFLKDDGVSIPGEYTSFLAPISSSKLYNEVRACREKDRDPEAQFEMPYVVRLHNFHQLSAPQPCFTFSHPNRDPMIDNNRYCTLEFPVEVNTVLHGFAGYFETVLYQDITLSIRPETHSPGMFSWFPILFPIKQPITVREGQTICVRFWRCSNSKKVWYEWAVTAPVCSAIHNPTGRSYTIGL
# T1 sequence (Q9BQA1 whole entry partner, species assumed): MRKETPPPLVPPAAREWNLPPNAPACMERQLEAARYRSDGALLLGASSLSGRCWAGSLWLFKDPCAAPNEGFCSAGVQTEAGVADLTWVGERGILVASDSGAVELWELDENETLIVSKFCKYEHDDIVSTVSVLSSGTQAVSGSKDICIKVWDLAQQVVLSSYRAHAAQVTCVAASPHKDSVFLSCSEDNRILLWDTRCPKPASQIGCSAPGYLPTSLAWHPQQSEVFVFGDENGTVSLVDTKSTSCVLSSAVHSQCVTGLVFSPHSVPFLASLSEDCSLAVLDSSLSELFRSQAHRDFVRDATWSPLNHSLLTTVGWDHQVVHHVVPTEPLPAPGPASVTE
IC50 [1],IC50 [2],Structure (SMILES)
≥ 30 µM,0.0548 µM,"O=C(Nc1cc(-c2ccccc2)[nH]n1)c1csc(Nc2ccc(Cl)cc2)n1 [Example 1, 2-[(4-Chlorophenyl)amino]-N-(5-phenyl-1H-pyrazol-3-yl)-1,3-thiazole-4-carboxamide]"
≥ 30 µM,0.819 µM,"Cc1ccc(Nc2nc(C(=O)Nc3cc(C(C)(C)C)on3)cs2)cc1Cl [Example 18, N-(5-tert-Butyl-1,2-oxazol-3-yl)-2-[(3-chloro-4-methylphenyl)amino]-1,3-thiazole-4-carboxamide]"
